Here are results for two compounds from patent US20090071883A1 (priority 2007, published 2009).

The subject of one assay is Erwinia carotovora. The assay is classed as cell-based.
Assay [1] has as its system Cryptosporidium parvum oocysts. The note with it: pH 7; cited from earlier work.

For `[O][Cl+][O-]` [chlorine dioxide], the “mean log cfu Erwinia carotovora” value with Erwinia carotovora came out at 0.0 log cfu. In addition, in assay [1], the “approximate CT values for 99% inactivation” value is given as about 78.
In the case of `NCl` [monochloramine], the “approximate CT values for 99% inactivation” value in assay [1] is listed as about 7200.
